# Patent US20060281817A1, “Treatment for neurodegenerative diseases” (priority 2005, published 2006)
# Legend:
# [1] = system: Huntington's disease (HD) mice; assay: Rotorod motor function test in HD mice; assay type: in vivo; conditions: treated HD mice vs untreated HD mice, day 93 and day 105 after birth
# Procedure: This example was carried out as schematically illustrated in FIG. 1.
# [2] = system: MN9D cells, vector only (control cells); assay: Cell death (propidium iodide, flow cytometry), cells with empty vector; assay type: cell-based; conditions: Vector only construct
# Text: (§1) Parkinson's disease (PD) is characterized by the presence of aggregates (Lewy bodies) composed of alpha-synculein and other cellular proteins within neurons. (Paleologou; Gandhi) These aggregates are believed to be a critical factor in the death of the neuron and in the etiology of PD (Paleologou; Schrag). Mutated alpha-synuclein, as observed in those individuals with familial PD caused by synculein mutations, causes increased aggregate formation (Paleologou). A cell culture model is used to study alpha-synuclein aggregate formation in vitro. This model was created by using molecular biological techniques to transfect a dopaminergic cell line with DNA constructs that, when expressed, generate large amounts of normal alpha-synuclein (over-expressed) or mutated human alpha synuclein within the cells essentially as described by Perez et al (Perez). […] These cells were then treated with Difluoromethylornithine (DFMO) to test the ability of this agent to reduce cell death.
# (§2) Compared to control cells, treatment with DFMO (100-500 uM) increased survival in cells over-expressing alpha synuclein and in cells expressing mutated alpha synuclein by up to 54%.
# [3] = system: MN9D cells over-expressing human alpha synuclein (wild type); assay: Cell death (propidium iodide, flow cytometry), cells over-expressing alpha synuclein; assay type: cell-based
# Text: as §1, §2
# [4] = system: MN9D cells expressing human A53T alpha-synuclein mutant; assay: Cell death (propidium iodide, flow cytometry), cells expressing mutated alpha synuclein; assay type: cell-based; conditions: Mutated alpha synuclein construct
# Text: as §1, §2
# [5] = represents % cells rescued by DFMO, 100 um
compound,measurement,setting,value
"NCCC[C@](N)(C(=O)O)C(F)F [DFMO, Alpha-difluoromethylornithine]",Rotorod motor function,[1],better
same,% Dead Cells (DFMO),[2]; DFMO-treated,30.2%
same,Reduction in % dead cells with DFMO,[2]; [5],9.6%
same,% rescue compared to vector control for DFMO treated cells,[3]; Alpha-synuclein construct,54%
same,% Dead Cells (DFMO),"[3]; Alpha-synuclein construct, DFMO-treated",29.8%
same,% Dead Cells minus % DFMO-treated cells (100 um),"[3]; Alpha-synuclein construct, represents % cells rescued by DFMO, 100 um",15%
same,Increased survival compared to control cells,"[3]; DFMO 100-500 uM, cells over-expressing alpha synuclein and cells expressing mutated alpha synuclein",up to 54%
same,% rescue compared to vector control for DFMO treated cells,[4],40%
same,% Dead Cells (DFMO),[4]; DFMO-treated,38.1%
same,Reduction in % dead cells with DFMO (100 uM),[4]; [5],13.5%
